Where “and” joins values, the source holds several entries; their conditions need not be identical. Equal entries are not always repeated.
Experiments:
[1] = system: LO2 cells; test: cells; assay type: cell-based; conditions: MTT, 72 h, normal cells; read-out: IC50 LO2
Procedure: (§1) The cytotoxicities of PSMA-activated prodrug CPT-HT-J-ZLn and PSMA hydrolysate CPT-D-GLn were evaluated by MTT assays on PSMA-expressing (PSMA^+) cancer cell LNCaP-FGC, non-PSMA-expressing (PSMA^−) cancer cells HepG2, MCF-7, Hela, DU145, and PC-3, and normal cells MDCK, LO2, respectively, using CPT as a positive control.
(§2) The cytotoxicity of all the tested compounds was evaluated in vitro via the MTT method against PSMA-expressing LNCaP-FGC cells and non-PSMA-expressing cells HepG2, Hela, MCF-7, DU145, PC-3 cells using CPT as the positive control. Tumor cells growing in the logarithmic phase were seeded in 96-well plates at a density 3 × 10^3 cells/well and incubated overnight. The following day, cells were then treated with serial dilutions of the tested compounds for 72 h. At the end of this incubation, 20 µL of 5 mg/mL methylthiazol tetrazolium (MTT) was added to each well and incubation proceeded at 37 °C for another 4 h. After the supernatant medium was thrown away, 150 µL dimethylsulphoxide (DMSO) were added to each well and absorbance was measured at 490 nm using a plate reader (BIORAD 550 spectrophotometer, Bio-rad Life Science Development Ltd., Berkeley, CA, USA). Experiments were performed in triplicate and the values were the average of three (n = 3) independent experiments. The concentration of the compound that results in 50% growth inhibition corresponds to the IC50. Tumor cell growth inhibitory rate was calculated using Equation (1): % inhibition = (1 − Sample group OD/Control group OD) × 100%(1)

[2] = system: MDCK cells; test: cells; assay type: cell-based; conditions: MTT, 72 h, normal cells; read-out: IC50 MDCK
Procedure: as §1, §2

[3] = system: HeLa cells (non-PSMA-expressing); test: MTT cytotoxicity assay, HeLa; assay type: cell-based, human; conditions: 72 h, mean ± SD, n = 3
Procedure: as §1
The tested compounds were dissolved in DMSO (Sigma, St. Louis, MO, USA) and added at required concentrations to the cell culture.
as §2, with “experiments.” for “experiments. The concentration of the compound that results in 50% growth inhibition corresponds to the IC50. Tumor cell growth inhibitory rate was calculated using Equation (1): % inhibition = (1 − Sample group OD/Control group OD) × 100%(1)”

[4] = system: DU145 cells (non-PSMA-expressing); test: cells; assay type: cell-based, human; conditions: MTT, 72 h, mean ± SD, n = 3; read-out: IC50 DU145
Procedure: as §1
(§3) The human prostate cancer cell line (LNCaP-FGC), human prostate cancer cell line (PC-3), human prostate cancer cell line (DU-145), human breast cancer cell line (MCF-7), human hepatocellular carcinoma cell line (HepG2), human cervical cancer cell line (Hela), were obtained from the Chinese Academy of Medical Sciences and Peking Union Medical College. The cultures of the cells were maintained as a monolayer in RPMI 1640 or DMEM supplemented with 10% (v/v) heat inactivated fetal bovine serum and 1% (v/v) enicillin/streptomycin (Corning, New York, NY, USA) and incubated at 37 °C in a humidified atmosphere with 5% CO2. The tested compounds were dissolved in DMSO (Sigma, St. Louis, MO, USA) and added at required concentrations to the cell culture.
as §2

[5] = system: HepG2 cells (non-PSMA-expressing); test: cells; assay type: cell-based, human; conditions: MTT, 72 h, mean ± SD, n = 3; read-out: IC50 HepG2
Procedure: as §1, §3, §2

[6] = system: MCF-7 cells (non-PSMA-expressing); test: cells; assay type: cell-based, human; conditions: MTT, 72 h, mean ± SD, n = 3; read-out: IC50 MCF-7
Procedure: as §1, §3, §2

[7] = system: PC-3 cells (non-PSMA-expressing); test: cells; assay type: cell-based, human; conditions: MTT, 72 h, mean ± SD, n = 3; read-out: IC50 PC-3
Procedure: as §1, §3, §2

[8] = system: LNCaP-FGC (PSMA+) cells; test: In vitro cellular uptake by CLSM, LNCaP-FGC; assay type: cell-based, human; conditions: 10 µM
From the text: (§4) In addition to solubilization, the pentapeptide serves to mask the cytotoxicity by preventing nonspecific uptake of drug into cells due to the presence of negative charged amino acids. Upon cleavage of the prodrug by PSMA within the PSMA-expressing cells, the active compound was able to enter cells. […] The nucleus was stained with PI (red) and the fluorescence of CPT was pseudo-colored with blue.
(§5) To evaluate the cellular uptake of the CPT-HT-J-ZL12, LNCaP-FGC (PSMA^+) and HepG2 (PSMA^−) cells were seeded at a density of 1 × 10^4 cells/well in 35 mm glass bottom dishes with 1 mL complete 1640 medium. After incubation for 24 h, the culture medium was replaced with 2 mL of fresh medium containing 10 µM CPT-HT-J-ZL12. Then the cells were incubated further for different incubation time periods (1 and 4 h). Following the removal of the culture media, cells were washed with cold PBS, fixed with 70% ethanol for 30 min at 4 °C. Subsequently, the cells were stained with 5 μg/mL propidium iodide (excitation wavelength was 561 nm) for 5 min to visualize nucleus. The cells were observed by a UltraView RS confocal laser scanning microscopy (PerkinElmer, Waltham, MA, USA).

[9] = system: LNCaP-FGC (PSMA+) cells; test: Apoptosis by Annexin V-FITC/PI flow cytometry, LNCaP-FGC; conditions: 72 h
Procedure: (§6) The apoptotic effect was determined by counting the apoptosis ratios (including the early and late apoptosis ratios).
(§7) To determine early apoptosis and secondary necrosis, LNCaP-FGC (PSMA^+) and HepG2 (PSMA^−) cells were stained with annexin-V FITC apoptosis detection kit (Beijing BioDee Biotech. Co., Ltd., Beijing, China) as per the manufacturer’s instructions. […] The resulting pellet was mixed with 200 µL binding buffer of the Annexin V-FITC kit, then 5 µL FITC labeled annexin V was added and mixed gently. After incubation at 4 °C for 10 min in the dark, 5 µL PI was added and mixed gently. Then the cells were immediately analyzed with a flow cytometry.

[10] = system: LNCaP-FGC cells (PSMA-expressing); test: MTT cytotoxicity assay, LNCaP-FGC; assay type: cell-based, human
Procedure: as §1, §3, §2

[11] = system: HepG2 (PSMA−) cells; test: Apoptosis by Annexin V-FITC/PI flow cytometry, HepG2; conditions: 72 h
Procedure: as §6, §7

[12] = system: HepG2 (PSMA−) cells; test: In vitro cellular uptake by CLSM, HepG2; assay type: cell-based, human; conditions: HepG2, 10 µM, 1 h and 4 h
From the text: as §4, §5

[13] = system: LNCaP-FGC (PSMA+) cells; test: Cell cycle by PI staining flow cytometry, LNCaP-FGC; assay type: cell-based, human; conditions: for percentage of cells in S phase (Dip S): 72 h
Procedure: To further study CPT-HT-J-ZL12-induced growth inhibition, the cell cycle changes were evaluated on LNCaP-FGC (PSMA^+) using flow cytometric methods.
The cell cycle was measured using PI staining and flow cytometry analysis according to the instructions of the manufacturer (Cell Cycle and Apoptosis Analysis Kit, Beyotime Biotechnology, Jiangsu, China). LNCaP-FGC cells (2 × 10^4 cells/mL) in logarithmic growth phase were seeded in 6-well culture plate and incubated for 24 h at 37 °C in incubator with 5% CO2. After exposure to different concentrations of CPT-HT-J-ZL12 (0.63, 1.25, 2.50 μM) for 72 h, cells were harvested and washed twice with cold PBS. Then the cells were centrifuged at 2400× g for 10 min, resuspended in 1 mL 70% cold ethanol and fixed for 12 h at −20 °C. After being washed twice with cold PBS, the cells were incubated with 0.5 mL propidium iodide for 30 min at 37 °C. Detection of the cell cycle was carried out by the Flow Cytometer at 488 nm excitation wavelength

## CC[C@@]1(OC(=O)CCCCCCCCCCCNC(=O)[C@@H](N)CCC(=O)N[C@@H](CCC(=O)N[C@@H](CCC(=O)N[C@@H](CC(=O)O)C(=O)N[C@@H](CCC(=O)O)C(=O)O)C(=O)O)C(=O)O)C(=O)OCc2c1cc1n(c2=O)Cc2cc3ccccc3nc2-1 [CPT-HT-J-ZL12, (3S,6S,11S,16S,21S)-21-amino-6-(carboxymethyl)-35-(((S)-4-ethyl-3,14-dioxo-3,4,12,14-tetrahydro-1H-pyrano[3′,4′:6,7]indolizino[1,2-b]quinolin-4-yl)oxy)-5,8,13,18,22,35-hexaoxo-4,7,12,17,23-pentaazapentatriacontane-1,3,11,16-tetracarboxylic acid]
[1]
  IC50: > 40 µM
[2]
  IC50: > 40 µM
[3]
  IC50: > 40 µM
[4]
  IC50: 5.4 ± 1.22 µM
[5]
  IC50: > 40 µM
[6]
  IC50: 21.7 ± 4.96 µM
[7]
  IC50: 43 ± 3.69 µM
[8]; 1 h
  cellular uptake (blue CPT fluorescence intensity): stronger
[8]; 4 h
  cellular uptake (blue CPT fluorescence): increased with the incubation time
[9]; 0.63 µM
  apoptosis ratio (early and late): 29.90%
[9]; 1.25 µM
  apoptosis ratio (early and late): 33.30%
[9]; 2.50 µM
  apoptosis ratio (early and late): 48.90%
[10]; LNCaP-FGC (PSMA+) vs DU145
  cytotoxicity against LNCaP-FGC higher than against DU145: 5 fold
[10]; LNCaP-FGC (PSMA+) vs Hela
  cytotoxicity against LNCaP-FGC higher than against Hela: 40 fold and ~ 40 fold
[10]; LNCaP-FGC (PSMA+) vs HepG2
  cytotoxicity against LNCaP-FGC higher than against HepG2: 40 fold and ~ 40 fold
[10]; LNCaP-FGC (PSMA+) vs MCF-7
  cytotoxicity against LNCaP-FGC higher than against MCF-7: 21 fold
[10]; MTT, 72 h, mean ± SD, n = 3, PSMA+, read-out: IC50 LNCaP-FGC
  IC50: 1 ± 0.2 µM
[11]; HepG2, 20.00 µM
  percentage of apoptotic cells: 19.80%
[11]; HepG2, 40.00 µM
  percentage of apoptotic cells: 28.30%
[11]; HepG2, 80.00 µM
  percentage of apoptotic cells: 30.10%
[12]
  cellular uptake (blue CPT fluorescence): almost no blue fluorescence
[13]; 1.25 µM
  percentage of cells in S phase (Dip S): 70.86%
[13]; 2.50 µM
  percentage of cells in S phase (Dip S): 83.66%
[13]; 0.63 to 2.50 µM
  effect on cell cycle: induce cell cycle arrest at the S phase

— publication PMC6214026, “PSMA-Oriented Target Delivery of Novel Anticancer Prodrugs: Design, Synthesis, and Biological Evaluations of Oligopeptide-Camptothecin Conjugates” (International Journal of Molecular Sciences, 2018)
